2 compounds from ChEMBL document CHEMBL1137576, “Interactions of hepatitis B core antigen and peptide inhibitors” (J Med Chem, 2007) can be followed below.

Where a SMILES comes first, the peptide text is derived from it.

Assay [1] addresses Core antigen (Hepatitis B virus) (UniProt Q03732). As to the kind of experiment: (§1) Binding affinity to HBcAg.
For the next assay, the target named is Core antigen (Hepatitis B virus, UniProt Q03732). Described as §1.
Core antigen, sequence (Q03732 whole entry): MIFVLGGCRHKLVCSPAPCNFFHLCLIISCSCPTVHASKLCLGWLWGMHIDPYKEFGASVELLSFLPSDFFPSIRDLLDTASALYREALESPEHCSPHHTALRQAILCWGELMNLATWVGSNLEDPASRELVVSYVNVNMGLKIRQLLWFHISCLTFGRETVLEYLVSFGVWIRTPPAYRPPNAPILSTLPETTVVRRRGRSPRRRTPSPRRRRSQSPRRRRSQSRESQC

Core antigen (Hepatitis B virus), sequence (Q03732 as listed by the source): as the sequence (Q03732 whole entry) above

Broadly, the Kd is a measure of binding affinity in units of concentration. Low values mean a tighter complex, high ones a looser complex. On to `CSCC[C@H](NC(=O)[C@H](CCCNC(=N)N)NC(=O)CNC(=O)[C@H](CC(C)C)NC(=O)[C@H](CC(C)C)NC(=O)[C@H](CO)NC(=O)[C@H](CCCNC(=N)N)NC(=O)[C@H](Cc1cnc[nH]1)NC(=O)[C@@H](N)CCSC)C(=O)N[C@@H](CCCCN)C(=O)NCC(=O)N[C@@H](C)C(=O)O`, for which the Ka in assay [1] was 1.26 10^4/M. The Kd at Core antigen was determined as 79.4 µM.

Regarding `CC[C@H](C)[C@H](NC(=O)[C@H](CC(N)=O)NC(=O)[C@H](CO)NC(=O)[C@H](Cc1ccccc1)NC(=O)[C@H](Cc1ccccc1)NC(=O)[C@H](CO)NC(=O)[C@@H](N)Cc1c[nH]c2ccccc12)C(=O)O` (H-WSFFSNI-OH), the Ka in assay [1] was 5.4 10^4/M. This compound came in with a Kd at Core antigen of 18.5 µM.
